Experimental data taken from the CheMixHub viscosity set.

Test: xn = mol fraction of the nth substance listed

BrC(Br)Br + CCCCCCCO
viscosity [mPa·s], 101.3 kPa
Settings | x1 = 0.102 | x1 = 0.204 | x1 = 0.301 | x1 = 0.405 | x1 = 0.503 | x1 = 0.597 | x1 = 0.699 | x1 = 0.801 | x1 = 0.901
298.15 K | 5.359 | 4.647 | 4.131 | 3.544 | 3.133 | 2.755 | 2.44 | 2.17 | 1.982
303.15 K | 4.524 | 3.988 | 3.547 | 3.093 | 2.773 | 2.457 | 2.199 | 1.992 | 1.844
308.15 K | 3.863 | 3.422 | 3.084 | 2.712 | 2.461 | 2.205 | 1.99 | 1.822 | 1.713

CCCCCCCCO + CCCCCCCO
viscosity [mPa·s]
Settings | 293.15 K | 298.15 K | 308.15 K | 318.15 K
101.33 kPa, x2 = 0.1671 | 8.821 | 7.374 | – | –
101.33 kPa, x2 = 0.3071 | 8.507 | 7.128 | – | –
101.33 kPa, x2 = 0.4819 | 8.113 | 6.847 | – | –
101.33 kPa, x2 = 0.6319 | 7.827 | 6.588 | – | –
101.33 kPa, x2 = 0.6868 | 7.688 | 6.471 | – | –
101.33 kPa, x2 = 0.8784 | 7.302 | 6.161 | – | –
101.8 kPa, x2 = 0.1105 | – | 7.442 | 5.362 | 3.936
101.8 kPa, x2 = 0.3246 | – | 7.122 | 5.139 | 3.78
101.8 kPa, x2 = 0.5285 | – | 6.742 | 4.884 | 3.607
101.8 kPa, x2 = 0.723 | – | 6.415 | 4.676 | 3.463
101.8 kPa, x2 = 0.9101 | – | 6.128 | 4.474 | 3.324

BrC(Br)Br + CCCCCCO
viscosity [mPa·s], 101.3 kPa
Settings | x1 = 0.097 | x1 = 0.199 | x1 = 0.298 | x1 = 0.403 | x1 = 0.497 | x1 = 0.601 | x1 = 0.701 | x1 = 0.798 | x1 = 0.9
298.15 K | 4.186 | 3.77 | 3.34 | 2.965 | 2.667 | 2.4 | 2.192 | 2.031 | 1.922
303.15 K | 3.573 | 3.237 | 2.907 | 2.611 | 2.37 | 2.156 | 1.988 | 1.866 | 1.784
308.15 K | 3.092 | 2.811 | 2.537 | 2.301 | 2.114 | 1.943 | 1.815 | 1.719 | 1.663

C=Cc1ccccc1 + CCCCCCO
viscosity [mPa·s], 101.33 kPa
Settings | x1 = 0.0998 | x1 = 0.2024 | x1 = 0.3078 | x1 = 0.4006 | x1 = 0.5007 | x1 = 0.5988 | x1 = 0.6993 | x1 = 0.7986 | x1 = 0.8985
298.15 K | 3.131 | 2.522 | 1.956 | 1.613 | 1.293 | 1.134 | 0.972 | 0.891 | 0.808
303.15 K | 2.773 | 2.177 | 1.703 | 1.446 | 1.154 | 1.051 | 0.89 | 0.84 | 0.747
308.15 K | 2.296 | 1.88 | 1.497 | 1.298 | 1.114 | 1.008 | 0.86 | 0.81 | 0.693

CC(=O)c1ccc(Cl)cc1 + CCCCCCO
303.15 K, 101 kPa
Settings | viscosity [mPa·s]
x1 = 0.0521 | 3.667
x1 = 0.1009 | 3.442
x1 = 0.1668 | 3.212
x1 = 0.2325 | 2.982
x1 = 0.3002 | 2.791
x1 = 0.4028 | 2.603
x1 = 0.5001 | 2.511
x1 = 0.5708 | 2.462
x1 = 0.641 | 2.437
x1 = 0.6998 | 2.428
x1 = 0.7655 | 2.448
x1 = 0.8376 | 2.502
x1 = 0.9007 | 2.589
x1 = 0.9513 | 2.717

CCCCCCCCO + CCCCCCO
viscosity [mPa·s], 101.8 kPa
Settings | x2 = 0.1207 | x2 = 0.3506 | x2 = 0.5615 | x2 = 0.7463 | x2 = 0.9227
298.15 K | 7.227 | 6.442 | 5.793 | 5.234 | 4.736
308.15 K | 5.209 | 4.695 | 4.259 | 3.879 | 3.53
318.15 K | 3.833 | 3.481 | 3.18 | 2.914 | 2.671

BrC(Br)Br + CCCCCO
viscosity [mPa·s], 101.3 kPa
Settings | x1 = 0.097 | x1 = 0.2 | x1 = 0.296 | x1 = 0.4 | x1 = 0.499 | x1 = 0.6 | x1 = 0.701 | x1 = 0.8 | x1 = 0.9
298.15 K | 3.255 | 3.006 | 2.729 | 2.477 | 2.275 | 2.114 | 1.997 | 1.91 | 1.873
303.15 K | 2.831 | 2.621 | 2.399 | 2.2 | 2.039 | 1.928 | 1.822 | 1.762 | 1.742
308.15 K | 2.452 | 2.296 | 2.113 | 1.954 | 1.829 | 1.741 | 1.67 | 1.631 | 1.628

C=Cc1ccccc1 + CCCCCO
viscosity [mPa·s], 101.33 kPa
Settings | x1 = 0.1003 | x1 = 0.1994 | x1 = 0.3003 | x1 = 0.3977 | x1 = 0.4969 | x1 = 0.5963 | x1 = 0.7027 | x1 = 0.8026 | x1 = 0.9011
298.15 K | 2.791 | 2.141 | 1.602 | 1.32 | 1.112 | 0.984 | 0.859 | 0.783 | 0.737
303.15 K | 2.472 | 1.984 | 1.404 | 1.175 | 1.013 | 0.901 | 0.793 | 0.741 | 0.692
308.15 K | 2.166 | 1.638 | 1.25 | 1.046 | 0.915 | 0.82 | 0.722 | 0.68 | 0.637

CCC(C)(C)OC + CCCCCO
298.15 K, 101.33 kPa
Settings | viscosity [mPa·s]
x1 = 0.0219 | 3.286
x1 = 0.0388 | 3.133
x1 = 0.0752 | 2.891
x1 = 0.1143 | 2.511
x1 = 0.1631 | 2.192
x1 = 0.211 | 1.93
x1 = 0.2721 | 1.651
x1 = 0.3347 | 1.417
x1 = 0.3464 | 1.374
x1 = 0.385 | 1.26
x1 = 0.4353 | 1.125
x1 = 0.4908 | 1.003
x1 = 0.5534 | 0.886
x1 = 0.6141 | 0.789
x1 = 0.6759 | 0.71
x1 = 0.7266 | 0.652
x1 = 0.8027 | 0.579
x1 = 0.8732 | 0.521
x1 = 0.9484 | 0.469
x2 = 0.0064 | 0.441

CCCCCCCCO + CCCCCO
101.33 kPa
Settings | viscosity [mPa·s]
293.15 K, x2 = 0.1991 | 7.947
293.15 K, x2 = 0.3363 | 7.158
293.15 K, x2 = 0.4792 | 6.397
293.15 K, x2 = 0.6294 | 5.561
293.15 K, x2 = 0.7214 | 5.182
293.15 K, x2 = 0.911 | 4.341
298.15 K, x2 = 0.0849 | 7.229
298.15 K, x2 = 0.2664 | 6.385
298.15 K, x2 = 0.3696 | 5.903
298.15 K, x2 = 0.6046 | 4.921
298.15 K, x2 = 0.708 | 4.524
298.15 K, x2 = 0.8575 | 3.97
